From patent US7666835B2 (Imperial Innovations Limited, priority 2001, dated 2010)
No end group written: not given here.

What was measured:
[1] = iPVN injection, food intake in 24-h fasted rats (studies 1b, 2b); type: in vivo, rat; conditions: for refeeding (food intake) after iPVN injection: study 1b, OXM, GLP-1 (3 nmol [sic]), exendin-4 0.03 nmol, glicentin, glucagon 1 nmol, SP-1 3 nmol, fasted rats
Description: (§1) Animals had permanent stainless steel guide cannulas (Plastics One, Roanoke, Va.) stereotactically implanted ICV or iPVN.
Therefore, exendin-4 was injected iPVN at a dose of 0.03 nmol.

[2] = ICV injection, food intake in 24-h fasted rats (studies 1a, 2a); type: in vivo, rat; conditions: study 1a, 3 nmol ICV; for refeeding (food intake) after ICV injection: 24-h fasted rats, vs saline
Description: as §1

[3] = ICV injection in sated rats at onset of dark phase: food intake and behaviour (study 3); type: in vivo, rat; conditions: study 3a, 3 nmol ICV, early dark phase, vs saline
Description: Food intake was measured 1 h postinjection (study 3a), and behaviour was assessed (study 3b).

GLP-1 receptor [4] = molecular target: T1, GLP-1 receptor (Rattus norvegicus, UniProt P32301); assay: ICV coadministration of exendin-(9-39) with GLP-1 or OXM, food intake (study 4a); type: in vivo; conditions: 1 h food intake
T1 construct: from tissue; host or cells: rat hypothalamus (membrane preparation)
T1 sequence (P32301 22-463): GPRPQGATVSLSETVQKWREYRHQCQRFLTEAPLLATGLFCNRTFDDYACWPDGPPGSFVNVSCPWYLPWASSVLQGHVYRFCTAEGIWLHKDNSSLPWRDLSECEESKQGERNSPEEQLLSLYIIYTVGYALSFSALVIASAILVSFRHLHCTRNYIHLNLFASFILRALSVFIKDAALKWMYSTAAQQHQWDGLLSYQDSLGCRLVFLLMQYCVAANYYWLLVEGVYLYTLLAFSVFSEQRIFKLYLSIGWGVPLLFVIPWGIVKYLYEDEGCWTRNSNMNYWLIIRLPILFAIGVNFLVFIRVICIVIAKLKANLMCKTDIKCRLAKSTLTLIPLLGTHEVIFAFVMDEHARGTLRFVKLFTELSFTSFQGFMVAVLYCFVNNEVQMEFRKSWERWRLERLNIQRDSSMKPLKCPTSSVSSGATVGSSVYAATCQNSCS
Description: (§2) Animals had permanent stainless steel guide cannulas (Plastics One, Roanoke, Va.) stereotactically implanted ICV or iPVN. All studies were carried out in the early light phase, between 0900-1100 h, after a 24-h fast, and food intake was measured 1, 2, 4, 8, and 24 h postinjection.

GLP-1 receptor [5] = molecular target: T1, GLP-1 receptor; assay: iPVN coinjection of exendin-(9-39) with GLP-1 or OXM, food intake (study 4b); type: in vivo
Description: as §2

[6] = molecular target: T2, arcuate nucleus GLP-1 receptors (Rattus norvegicus, UniProt P32301); assay: iARC exendin 9-39 prior to IP OXM or GLP-1, 1 hour food intake; type: in vivo
T2 construct: 24-hour fasted rats received an iARC injection of saline or exendin9-39 (5 nmoles); from tissue; host or cells: living rat, hypothalamic arcuate nucleus
T2 sequence (P32301 22-463): T1 sequence (P32301 22-463)
Description: Rats cannulated into the arcuate nucleus were randomised into 6 groups (n=10-12 per group). […] The injection details are described in Table 1 below.

[7] = test system: fos-like immunoreactivity; assay: fos-like immunoreactivity (FLI) in hypothalamus and brainstem after IP injection; type: in vivo, rat; conditions: IP OXM 50 nmol/kg or CCK 15 nmol/kg; 90 minutes after injection
Description: The brains were removed and post-fixed overnight in PBF and then transferred to PB-sucrose (20% w/v) overnight. 40 μm coronal sections of brain and brainstem were cut on a freezing microtome and stained for fos-like immunoreactivity (FLI) by the avitin-biotin-peroxidase method. The sections were then mounted on poly-L-lysine-coated slides, dehydrated in increasing concentrations of ethanol (50-100%), delipidated in xylene and coverslipped using DPX mountant. Slides were examined for FLI-positive nuclei using a light microscope (Nikon Eclipse E-800) and images captured using a microimager (Xillix MicroImager). The numbers of FLI-positive nuclei in the hypothalamus and brainstem were counted by an independent member of the research team who was blinded to the experimental groups. The average number of FLI-positive nuclei per section was calculated and expressed as an integer for each animal.

exendin-4
refeeding (food intake) after iPVN injection [1]: inhibited refeeding

CC[C@H](C)[C@H](NC(=O)[C@H](Cc1ccccc1)NC(=O)[C@H](CCC(=O)O)NC(=O)[C@H](CCCCN)NC(=O)[C@H](C)NC(=O)[C@H](C)NC(=O)[C@H](CCC(N)=O)NC(=O)CNC(=O)[C@H](CCC(=O)O)NC(=O)[C@H](CC(C)C)NC(=O)[C@H](Cc1ccc(O)cc1)NC(=O)[C@H](CO)NC(=O)[C@H](CO)NC(=O)[C@@H](NC(=O)[C@H](CC(=O)O)NC(=O)[C@H](CO)NC(=O)[C@@H](NC(=O)[C@H](Cc1ccccc1)NC(=O)[C@@H](NC(=O)CNC(=O)[C@H](CCC(=O)O)NC(=O)[C@H](C)NC(=O)[C@@H](N)Cc1c[nH]cn1)[C@@H](C)O)[C@@H](C)O)C(C)C)C(=O)N[C@@H](C)C(=O)N[C@@H](Cc1c[nH]c2ccccc12)C(=O)N[C@@H](CC(C)C)C(=O)N[C@H](C(=O)N[C@@H](CCCCN)C(=O)NCC(=O)N[C@@H](CCCNC(=N)N)C(N)=O)C(C)C [GLP-1, glucagon-like peptide-1]
refeeding (food intake) after ICV injection [2]: significantly reduced refeeding | duration of inhibition of food intake postinjection ([2]; fasted rats): 4 h | refeeding (food intake) after iPVN injection [1]: inhibited refeeding | food intake after iPVN injection ([1]; study 2b, 1 nmol iPVN, until 8 h postinjection): significantly reduced | food intake 1 h postinjection [3]: significantly reduced food intake

exendin-(9-39)
effect of coadministered exendin-(9-39) on anorectic effect of GLP-1 (GLP-1 receptor [4]; exendin-(9-39) 30 nmol with GLP-1 3 nmol (10:1)): blocked the anorectic effects of GLP-1 | effect of coadministered exendin-(9-39) on anorectic effect of OXM (GLP-1 receptor [4]; exendin-(9-39) 30 nmol with OXM 3 nmol): attenuation of the anorectic effect of OXM | effect of coinjected exendin-(9-39) on anorectic effect of GLP-1 (GLP-1 receptor [5]; exendin-(9-39) 10 nmol with GLP-1 1 nmol): blocked | effect of coinjected exendin-(9-39) on anorectic effect of OXM (GLP-1 receptor [5]; exendin-(9-39) 10 nmol with OXM 1 nmol): blocked | Food intake ([6]; 1 hour, iARC injection / IP injection 15 minutes later, exendin 9-39 5 nmoles, OXM or GLP-1 30 nmol/kg, Saline/saline 9.2): 9.0 g | effect of prior iARC exendin 9-39 on inhibition of food intake by IP GLP-1 ([6]; GLP-1 30 nmol/kg IP): not affected | effect of prior iARC exendin 9-39 on anorexia caused by IP OXM ([6]; exendin 9-39 (300 nmol/kg as printed) into the ARC, OXM 30 nmol/kg IP): blocked

glucagon
refeeding (food intake) after ICV injection [2]: failed to affect food intake at any time point | refeeding (food intake) after iPVN injection [1]: failed to affect food intake at any time point

CCK-8 (DYMGWMDF; ends and bridges not checked; UniProt P06307 96-103, looked up) [positive control for gastric emptying and brainstem FLI]
FLI / c-fos expression in the brainstem (NTS, area postrema) [7]: dense staining of FLI
